Columns and labels:
[1] = lifespan of rats on low-fat standard American diet; format: in vivo, Fischer 344 rats; settings: supplemented versus standard diet at 20 months
Description: Sixteen rats (Fischer 344 rats) were studied for the effect of R-beta-hydroxybutyrate on lifespan. A first grouping of eight rats were fed an equivalent to a low-fat standard American diet and a second grouping of eight rats were fed the same equivalent to a low-fat standard American diet and supplemented with R-beta-hydroxybutyrate salt (e.g., sodium R-beta-hydroxybutyrate). The second grouping of rats were supplemented with the R-beta-hydroxybutyrate salt at middle age. FIG. 7 illustrates the average lifespans of the groupings of rats. […] Since the rat study was performed as an approximation of impact in humans, the addition of R-beta-hydroxybutyrate to a standard American low-fat diet may increase lifespan.

[2] = test system: superoxide dismutase 2; assay: superoxide dismutase 2 levels in the brain; format: in vivo; settings: e.g. 10 g; standard or ketogenic diet
Description: Individuals were given a standard diet or ketogenic diet. Some individuals were administered R-beta-hydroxybutyrate (e.g., 10 g).

[3] = Bench Press strength and power testing at 50% of 1-RM; format: in vivo, human; settings: 5 g; for increase in minimum power: averages of power measurements
Description: FIGS. 19A-19B illustrate the results of the testing. […] Thus, R-beta-hydroxybutyrate experienced a greater than expected impact when compared with D,L-beta-hydroxybutyrate. The individuals were also tested for power. FIG. 19C illustrates the results of the testing (e.g., averages of power measurements). As illustrated, R-beta-hydroxybutyrate administration increased minimum power by 26%, while the DL-beta-hydroxybutyrate administration raised power by 2%.

[4] = motor function testing by eye movements in an individual with Parkinson's disease; format: in vivo, human; settings: approximately 10 g; approximately 30 minutes after administration; one Parkinson's patient, pre vs post
Description: The testing included a right-eye visual and motor performance apparatus to track motor function through eye movements. FIG. 8 illustrates chart illustrating the results of the motor skill testing following an example implementation of administration of R-beta-hydroxybutyrate. FIG. 8 illustrates average results for a similar non-Parkinson's population, the patient pre-administration of R-beta-hydroxybutyrate, and the patient post-administration of R-beta-hydroxybutyrate.

[5] = Respiratory exchange ratio (RER); format: in vivo, human; settings: 10 subjects
Description: 10 subjects were administered approximately 5 g or 10 g of D,L-beta-hydroxybutyrate or R-beta-hydroxybutyrate, and Respiratory exchange ratio was examined (RER, a ratio of carbon dioxide/oxygen).

[6] = Xray absorptiometry, fat mass and lean mass; format: in vivo, human; settings: 5 g twice daily for 3 months; one individual
Description: Xray absorptiometry was performed to determine the impact of the administration of R-beta-hydroxybutyrate on fat loss. […] As illustrated, the individual experienced a greater than approximately 10% decrease in fat mass. […] Thus, the R-beta-hydroxybutyrate may cause weight loss through fat loss rather than lean mass (e.g., muscle mass).

[7] = test system: Lipoprotien lipase (LPL); assay: average Lipoprotien lipase (LPL) in rats; format: in vivo; settings: standard diet plus salt equivalent to 5 g or 10 g; 10 rats per grouping
Description: FIG. 11 illustrates the average Lipoprotien lipase (LPL) in the rats. Since LPL is needed to transport fat into adipose tissue, lowering LPL levels would inhibit fat storage and encourage usage of fat storages.

[8] = 2 km time test on wingate cycle ergometer; format: in vivo, human; settings: 10 g, 30 minutes before 2 km time test
Description: Five healthy individual were given a 2 km time test (e.g., 4 cycles of low to severely intense exercise on a […] ergometer) 30 minutes after administration of a placebo, 10 g of R-beta-hydroxybutyrate, and 10 g of […]. FIG. 12 illustrates the average blood ketone levels and FIG. 13 illustrates the percentage improvement over the administration of the placebo. […] FIG. 14 illustrates the perceived exertion experienced by the individuals. […] Thus, the R-beta-hydroxybutyrate has an unexpectedly impact on ketone levels and performance.

[9] = fasting glucose after administration; format: in vivo, human; settings: same individual; 104 before administration
Description: (§1) An individual with high C-reactive protein, which is associated with inflammation, was administered R-beta-hydroxybutyrate. […] In addition, fasting glucose was decreased (e.g., 104 to 95).

[10] = test system: C-reactive protein; assay: C-reactive protein levels after administration; format: in vivo, human; settings: one individual with high C-reactive protein; 62.5 before administration
Description: as §1

[11] = mental acuity testing (tracking, saccades, processing speed, response accuracy); format: in vivo, human
Description: Processing speed testing was performed (e.g, processing speed is considered a true measure of cognitive performance). […] Response accuracy was also tested.

[12] = perceived hunger, satiety and perceived energy; format: in vivo, human
Description: FIGS. 18A-18C illustrate the results of the testing. FIG. 18A illustrates perceived hunger, FIG. 18B illustrates perceived satiety, and FIG. 18C illustrates perceived energy. […] R-beta-hydroxybutyrate sustained elevated perceived energy levels from 0 minutes at 60, 90, and 120 minutes post consumption, as opposed to D,L-beta-hydroxybutyrate.

[13] = blood ketone levels after R-, L- or D,L-beta-hydroxybutyrate; format: in vivo, human; settings: 5 g or 10 mg (so in the source)
Description: Individuals were 5 g or 10 mg of R-beta-hydroxybutyrate, L-beta-hydroxybutyrate, or D,L-beta-hydroxybutyrate and blood ketone levels were measured.

[14] = glucose challenge test, blood ketone levels; format: in vivo, human; settings: 250 mg DHBB alone or with 5 mg sodium beta-hydroxybutyrate; one subject; 120 minutes
Description: A subject was subject to a glucose challenge test (75 g glucose) after administration of 250 mg dihydroberberine (DHBB) and a glucose challenge test after administration of 250 mg dihydroberberine (DHBB) along with 5 mg of beta-hydroxybutyrate (e.g., 5 mg sodium beta-hydroxybutyrate).

[15] = glucose challenge test (75 g glucose), blood glucose levels; format: in vivo, human
Description: Five subjects were subject to three separate glucose challenge tests (75 g glucose) after administration of 500 mg berberine (BB), 250 mg of dihydroberberine (DHBB) or 500 dihydroberberine. Blood was drawn prior to administration and after 30, 60, 90, 120, and 180 minutes. FIG. 1 illustrates the results of the administration protocol. FIG. 1 illustrates the average blood glucose level of the 5 subjects at each of the times.
As in Example 1, five subjects were subject to three separate glucose challenge tests (75 g glucose) after administration of 500 mg berberine (BB), 250 mg of dihydroberberine (DHBB) or 500 dihydroberberine. FIG. 2 illustrates a ranking which compositions caused the lowest blood glucose levels during a oral glucose challenge. […] For example, in some individuals (e.g., individuals with moderate glucose tolerance) may achieve better blood glucose control when administered a lower dosage of DHBB.
Five subjects were subject to three separate glucose challenge tests (75 g glucose) approximately 25 minutes after administration of 500 mg berberine (BB), 250 mg of dihydroberberine (DHBB) or 500 dihydroberberine. Blood was drawn prior to administration and after 30, 60, 90, 120, and 180 minutes and tested for glucose levels. FIG. 4 illustrates the results of the administration protocol.

[16] = blood ketone level over time after administration of sodium beta-hydroxybutyrate; format: in vivo, human; settings: 5 mg of sodium R-beta-hydroxybutyrate (so in the source); average of 4 subjects; 30, 60, 90, 120 and 180 minutes
[17] = before vs after, 5 resistance trained males, 50% of 1-RM

In the case of `C[C@@H](O)CC(=O)O` [R-beta-hydroxybutyrate, (R)-3-Hydroxybutyric acid], the “rats with increased lifespan” value [1] is reported as no less than 38.5%, the “superoxide dismutase 2 levels (SOD) in the brain” value [2] is reported as “numerically increase superoxide dismutase 2 levels” and the “increase in minimum power” value [3] is reported as 26%. For the same compound, the “increase in Bench Press test result” value [3, 17] was 11%, the motor function [4] was “increased motor function” and the “reduction of RER relative to D,L-beta-hydroxybutyrate” value ([5]; 10 g) was “approximately 3 ×”. The “decrease in fat mass” value [6] was greater than 10%, the lean mass [6] was “maintaining lean mass” and the LPL levels [7] was “decreases LPL levels”. For the same compound, the perceived exertion [8] was “perceived exertion improvement”, the “blood ketone levels compared with D,L-beta-hydroxybutyrate” value ([8]; five healthy individuals) was “increased more than double” and the “performance (improvement in time) compared with D,L-beta-hydroxybutyrate” value ([8]; improvement over placebo) was “increased by more than double”. For the same compound, the “fasting glucose after administration” value [9] was 95, the “C-reactive protein levels after administration” value [10] was 4.4 and the “Horizontal Saccades, improvement relative to D,L-beta-hydroxybutyrate” value ([11]; e.g. 5 g) was 4 times. For the same compound, the “Horizontal Saccades, performance improvement” value ([11]; e.g. 5 g) was 13.8%, the “improvement of processing speed” value ([11]; e.g. 5 g) was 27.7% and the “increase of response accuracy” value ([11]; e.g. 5 g) was 37 percentage points. For the same compound, the “Circular Tracking, improvement in tracking accuracy” value ([11]; e.g. 10 g) was “approximately 3%”, the “Vertical Tracking, improvement of performance” value ([11]; e.g. 10 g) was 13.8% and the “Vertical Tracking, improvement relative to D,L-beta-hydroxybutyrate” value ([11]; e.g. 10 g) was “approximately 3 times”. The “improvement of perceived energy relative to D,L-beta-hydroxybutyrate” value ([12]; 0 to 30 minutes post consumption, 5 g-10 g) was “double that of D,L-beta-hydroxybutyrate”, the “raise of perceived energy” value ([12]; 5 g-10 g) was 18% and the “improvement of satiety levels relative to DL-beta-hydroxybutyrate” value ([12]; 30 minutes post consumption, relative to baseline, 5 g-10 g) was 2.3 ×. The “raise of perceived energy relative to peak increase with DL-beta-hydroxybutyrate” value ([12]; in vivo) was “more than 2 times” and the “time for which raised perceived energy was sustained” value ([12]; post ingestion) was 2 h.

With `C[C@H](O)CC(=O)O` [L-beta-hydroxybutyrate] the blood ketone levels [13] was “does not decrease blood ketones”.

For `CC(O)CC(=O)O` (racemic) [D,L-beta-hydroxybutyrate, reference compound], the “increase in minimum power” value [3] was 2%, the “decrease in Bench Press test result” value [3, 17] was 2% and the “increase of RER” value ([5]; D,L-beta-hydroxybutyrate, more than 5 g) was 17%. The perceived exertion [8] was “did not feel an impact in perceived exertion”, the blood ketone levels [13] was “does not lower blood ketone levels to the same extent as R-beta-hydroxybutyrate” and the “increase of response accuracy” value ([11]; DL-beta-hydroxybutyrate) was 12.7%. For the same compound, the “Horizontal Saccades, performance improvement” value ([11]; e.g. 5 g) was 3.2%, the “improvement of processing speed” value ([11]; e.g. 5 g) was “approximately 18%” and the “Circular Tracking, improvement in tracking accuracy” value ([11]; e.g. 10 g) was “no improvement”. For the same compound, the “Vertical Tracking, improvement of performance” value ([11]; e.g. 10 g) was 4.6%.

For `COc1ccc2c(c1OC)CN1CCc3cc4c(cc3C1=C2)OCO4` [dihydroberberine], the “blood ketone levels after glucose challenge” value [14] was “unexpectedly increased even 120 minutes after the glucose challenge”, the “control of blood glucose levels during oral glucose challenge (ranking)” value ([15]; 250 mg DHBB vs 500 mg DHBB, 5 subjects) was “control blood glucose levels better than even 500 mg of DHBB” and the “blood glucose during oral glucose challenge versus berberine” value ([15]; 250 mg or 500 dihydroberberine vs 500 mg berberine, 5 subjects) was “lower blood glucose than administration of berberine in most individuals”. For the same compound, the “fluctuations in blood glucose level” value ([15]; 75 g glucose challenge, 250 mg or 500 dihydroberberine vs 500 mg berberine, average of 5 subjects, 30-180 minutes) was “less fluctuations in blood glucose level than berberine”, the “blood glucose levels relative to fasting blood glucose” value ([15]; 75 g glucose challenge, dihydroberberine vs 500 mg berberine, 5 subjects) was “keep blood glucose levels closer to fasting blood glucose than berberine” and the “moderation of blood glucose levels” value ([15]; individuals with moderate baseline glucose levels, glucose challenge about 25 minutes after administration, vs 500 mg berberine) was “moderates blood glucose levels better than even double the quantity of berberine”.

In the case of `C[C@@H](O)CC(=O)[O-].[Na+]` [sodium R-beta-hydroxybutyrate], the “blood ketone level compared with 10 g of D,L-beta-hydroxybutyrate” value [16] is reported as “approximately the same blood ketone level”.

Reference: patent publication US12521378B2, “Administration of R-beta-hydroxybutyrate salt blend and related compounds in humans” (priority 2016, dated 2026)
